Assay results from patent publication US11827612B2, “Hydroxamic acid derivative, method for producing same and use thereof” (INSTITUTE OF MEDICINAL BIOTECHNOLOGY, CHINESE ACADEMY OF …, priority 2019, dated 2023).
Values after ≈ are worked out from the molar mass of the structure shown.

Tests used:
E. coli ATCC 25922 = experiment: Antibiotic susceptibility test, broth microdilution (CLSI), MIC; assay type: cell-based; conditions: Escherichia coli, ATCC25922, 35° C., 18 h, read-out: Minimal inhibitory concentration (MIC)
Protocol: (§1) An antibiotic susceptibility test was carried out using the broth microdilution guidelines as stipulated by the Clinical and Laboratory Standards Institute (CLSI). Test organisms were grown in Mueller-Hinton (MH) or Brain Heart Infusion (BHI) broth. Solutions of compounds to be tested were each diluted in 96-well plates (50 μl per well) to various prescribed concentrations with the MH or BHI broth. Final concentrations of the solutions in each well were as follows: 128, 64, 32, 16, 8, 4, 2, 1, 0.5, 0.25, 0.125, 0.06, and 0.03 μg/ml. The culture mediums in the 96-well plates were inoculated with 5×10^5 CFU/ml of the test organisms, and then the organisms were cultured at 35° C. for 18 h.

[1] = system: Enterobacter aerogenes ATCC 13048; experiment: as above; assay type: cell-based; conditions: Klebsiella aerogenes, ATCC13048, 35° C., 18 h, read-out: Minimal inhibitory concentration (MIC)
Protocol: as §1

[2] = system: Enterobacter cloacae ATCC 43560; experiment: as above; assay type: cell-based; conditions: ATCC43560, 35° C., 18 h, read-out: Minimal inhibitory concentration (MIC)
Protocol: as §1

[3] = system: Klebsiella pneumoniae ATCC 700603; experiment: as above; assay type: cell-based; conditions: ATCC700603, 35° C., 18 h, read-out: Minimal inhibitory concentration (MIC)
Protocol: as §1

[4] = system: NDM-1-producing Klebsiella pneumoniae 2146; experiment: as above; assay type: cell-based; conditions: 35° C., 18 h, read-out: Minimal inhibitory concentration (MIC)
Protocol: as §1

[5] = system: Pseudomonas aeruginosa ATCC 27853; experiment: as above; assay type: cell-based; conditions: ATCC27853, 35° C., 18 h, read-out: Minimal inhibitory concentration (MIC)
Protocol: as §1

[6] = Experiments of toxicity in mice, tail vein injection; assay type: in vivo; conditions: both sexes, ICR, mouse, in vivo
Protocol: (§2) ICR mice of either sex weighing between 18-22 g were randomized into groups of 3 mice per group. […] The number of mice that died and the time of death were recorded. […] Tails were removed from the mice that were not dead from the injection and from the normal mice that were not given any of the compounds, and were then fixed in paraformaldehyde. Tail vessels were observed by HE staining to determine whether or not a lesion existed.

ICR mice = experiment: as above; assay type: in vivo; conditions: for Toxicity/yes or no: ICR mice, tail vein injection; for Mortality rate / Number of deaths / Time of death: both, ICR, mouse, in vivo
Protocol: as §2

Row | Structure (SMILES) | MIC (E. coli ATCC 25922) | MIC [1] | MIC [2] | MIC [3] | MIC [4] | MIC [5] | MTD [6] | Toxicity/yes or no (ICR mice; dose 100 mg/kg) | Toxicity/yes or no (ICR mice; dose 200 mg/kg) | Toxicity/yes or no (ICR mice; dose 300 mg/kg) | Mortality rate (ICR mice; 100 mg/kg) | Number of deaths (ICR mice; 100 mg/kg) | Mortality rate (ICR mice; 200 mg/kg) | Number of deaths (ICR mice; 200 mg/kg) | Time of death (ICR mice; 200 mg/kg) | Mortality rate (ICR mice; 300 mg/kg) | Number of deaths (ICR mice; 300 mg/kg) | Time of death (ICR mice; 300 mg/kg)
1 | CO[C@H]1CCC[C@@H]1C#CC#Cc1ccc(C(=O)N[C@H](C(=O)NO)C(C)(C)N)cc1 [I-1, N—((S)-3-amino-1-(hydroxyamino)-3-methyl-1-oxobutan-2-yl)-4-(((1R,2S)-2-methoxycyclopentyl)butan-1,3-diyne-1-yl)benzamide] | 0.125 µg/mL (≈ 0.314 µM) | 1 µg/mL (≈ 2.52 µM) | 1 µg/mL (≈ 2.52 µM) | 2 µg/mL (≈ 5.03 µM) | 2 µg/mL (≈ 5.03 µM) | 0.5 µg/mL (≈ 1.26 µM) | > 100 mg/kg | no | yes | yes | 0% | 0 | 66% | 2 | 10 to 20 min | 100% | 1 | 1 min
2 | CC(C)(N)[C@H](NC(=O)N1CCN(C#CC#Cc2ccc([N+](=O)[O-])cc2)CC1)C(=O)NO [I-2, (S)—N-(3-amino-1-(hydroxyamino)-3-methyl-1-oxobutan-2-yl)-4-((4-nitrophenyl)butan-1,3-diyne-1-yl)-piperazin-1-carboxamide] | 0.125 µg/mL (≈ 0.292 µM) | 2 µg/mL (≈ 4.67 µM) | 0.5 µg/mL (≈ 1.17 µM) | 2 µg/mL (≈ 4.67 µM) | 2 µg/mL (≈ 4.67 µM) | 0.25 µg/mL (≈ 0.584 µM) | > 100 mg/kg | no | yes | yes | 0% | 0 | 66% | 2 | 10 to 15 min | 100% | 1 | 0.5 to 1 min
3 | CC(C)(N)[C@H](NC(=O)c1ccc(C#CC#Cc2ccc(CN3CCCCC3)cc2)cc1O)C(=O)NO [I-3, (S)—N-(3-amino-1-(hydroxyamino)-3-methyl-1-oxobutan-2-yl)-2-hydroxy-4-((4-(piperidin-1-ylmethyl)phenyl)butan-1,3-diyne-1-yl)benzamide] | 0.125 µg/mL (≈ 0.256 µM) | 2 µg/mL (≈ 4.09 µM) | 1 µg/mL (≈ 2.05 µM) | 4 µg/mL (≈ 8.19 µM) | 2 µg/mL (≈ 4.09 µM) | 0.5 µg/mL (≈ 1.02 µM) | > 100 mg/kg | no | yes | yes | 0% | 0 | 66% | 2 | 10 to 20 min | 100% | 1 | 1 min
4 | C[C@H]1COc2c(N3CCN(C)CC3)c(F)cc3c(=O)c(C(=O)O)cn1c23 [Levofloxacin, levofloxacin, reference compound] | ≤ 0.25 µg/mL | ≤ 0.25 µg/mL | ≤ 0.25 µg/mL | 0.5 µg/mL (≈ 1.38 µM) | > 64 µg/mL | 1 µg/mL (≈ 2.77 µM) | – | – | – | – | – | – | – | – | – | – | – | –
